Test results: paper PMC9845330 (Communications Biology, 2023)
Non-standard residues stand in square brackets, D forms with d. Residues, ends and D or L forms follow the SMILES beside them. *: point of attachment. X1 = O=C(CCCC[C@@H]1SC[C@@H]2NC(=O)N[C@@H]21)NCCCOCCOCCOCCCN*; PEG12 = NCCOCCOCCOCCOCCOCCOCCOCCOCCOCCOCCOCCOCCC(=O)O

What was measured:
HBEC cells = assay: In vitro saporin delivery, cell viability (CellTiter-GLO); format: cell-based, human; conditions: saporin conjugate, 6 h exposure, viability at 72 h
Protocol: The ability of MGS4_V8-saporin conjugate to induce cell death was determined.
Biotinylated peptide was conjugated to streptavidin-saporin (Advanced Targeting Systems Bio, San Diego, CA) in a 1:1 molar ratio. Increasing doses of peptide-drug conjugate in triplicate were incubated on the cells for 6 h at 37 °C. The drug was removed and replaced with complete growth media. After 72 h, cell viability was measured using CellTiter-GLO® (Promega, Madison, WI). Cell viability was normalized to untreated cells. IC50s were calculated using GraphPad Prism® using log(agonist) vs. response–Variable slope (four parameters). […]
M GS4_V4 (non-acetylated, panel a) and M GS4_V8 (acetylated, panel b ) were incubated in 100% human serum for 0 and 48-hours. Serum proteins were precipitated, and the peptide was analyzed by analytical
HPLC. The mass of the peptide and degradation products were determined by MALDI MS and are […]
MGS4_V8, MGS4_V9, or MGS4_V10 were conjugated with streptavidin-Alexa Fluor 650 and were incubated with the indicated cell line for 1 hour. Non-internalized peptide was rem ov ed, and the mean number of peptides internalized per cell was determined to calculate the EC50. […]
Supplemental Figure 4 : Peptide-Streptavidin conjugates are nontoxic to cells. a. […] After 72 hours, viability was measured. […]

H1299 cells = assay: Cell internalization by flow cytometry, absolute uptake (molecules per cell) of peptide-streptavidin-Alexa Fluor 647; format: cell-based, human; conditions: for Molecules Internalized Per Cell: Average
Excerpt: Optimizing MGS4 as a monomer is efficient but the optimal valency of the truncated peptide may be different than that of the full-length peptide. The peptide was synthesized as a monomer (MGS4_V8), dimer (MGS4_V9), and tetramer (MGS4_V10). To obtain quantitative data, we moved from measuring the relative fluorescence of dye-labeled peptide to the determination of the average number of dye molecules internalized per cell. […] The dimer MGS4_V9 has an EC50 7-fold lower indicating there is a synergistic effect in going from a monomer to a dimer (Fig. 2a and Table 2). However, there is only a 2-fold decrease in going from a dimer to a tetrameric peptide (MGS4_V10). We also calculated the EC50 on three other NSCLC cell lines (Table 2 and Supplementary Figure 3). […] The average number of peptides internalized per cell at saturating conditions varies, with H1993 cells internalizing the highest number of peptides at all three valencies (Table 2). This is likely due to differing levels of receptor expression on the cell type. The average molecules internalized at 50 nM in one hour follows the same trend (Fig. 2b).
Non-internalized peptide was removed, and the mean number of peptides internalized per cell was determined to calculate the EC50. Individual measurements are shown. The mean is shown as an “X”. Error bars, in black, represent standard error measurements and are below the height of the symbols in some cases. b The average number of peptide molecules per cell at 50 nM at 1 h was determined on four NSCLC cell lines and one normal human bronchial epithelial cell line (HBEC). Error bars represent SEM and individual data points are shown. c H1299 cells were incubated with 50 nM peptide-Streptavidin-Qdot605 for 1 h, removed, and replaced with normal growth media. After 24 h, cells were fixed, and counterstained with DAPI (blue). Representative maximally projected z-stacks for each group reveal no apparent difference in peptide internalization or localization. The scale bar represents 10 µm.
Biotinylated peptide was conjugated to streptavidin-R-phycoerythrin or streptavidin-Alexa Fluor 647 (1:1 molar ratio) for 30 min. The open binding sites on streptavidin were quenched with RPMI 1640 and diluted to the indicated concentration. Tumor cells were grown to 90% confluency in a 12 well plate, then incubated with 500 µl peptide-dye conjugate at 37 °C. After 1 h, peptide was removed, and the cells were washed 3x with PBS (137 mM NaCl, 2.7 mM KCl, 10 mM Na2HPO4, 1.8 mM KH2PO4, pH 7.4), 2x with 0.1 M HCl-glycine pH2.2 in 0.9% NaCl, and 1x PBS rinse. Cells were removed by trypsinization. Flow cytometry was performed on a BD FACSCelesta, and data were analyzed on Flowing software. Cells were gated based on the forward and side scatter to include only viable cells and a minimum of 10,000 events were counted. A region containing <5% of the cells in the negative control was established, and relative peptide uptake by the mean fluorescence intensity of that population. For absolute peptide uptake per cell, a standard curve was generated using Quantum™ Alexa Fluor 647 microspheres (Bangs Laboratory, Fishers, IN). A representative linear regression showing the correlation of molecule equivalents soluble fluorophores (MESF) vs the mean fluorescence intensity (MFI) is shown in Supplemental Figure 6. Cells were gated based on the forward and side scatter to include only viable cells and a minimum of 10,000 events were counted. MFI was determined at 50% at peak height. Molecules internalized per cell were determined by the standard curve relating MESF to MFI and divided by the number dye molecules/MGS conjugate. An example is shown in supplemental Figure 7. GraphPad Prism® was used for non-linear regression curve fitting to calculate an EC50. Parameters and statistical analysis are provided (Supplementary Tables 2–6). Experiments were repeated a minimum of three times. […]

CC(=O)N[C@@H](Cc1ccccc1)C(=O)N[C@@H](Cc1c[nH]cn1)C(=O)N[C@@H](C)C(=O)N[C@H](C(=O)N1CCC[C@H]1C(=O)N[C@@H](CCC(N)=O)C(=O)N[C@@H](CO)C(=O)N[C@@H](Cc1ccccc1)C(=O)N[C@@H](Cc1ccc(O)cc1)C(=O)N[C@H](C(=O)NCCOCCOCCOCCOCCOCCOCCOCCOCCOCCOCCOCCOCCC(=O)N[C@@H](CCC(=O)NCCCOCCOCCOCCCNC(=O)CCCC[C@@H]1SC[C@@H]2NC(=O)N[C@@H]21)C(N)=O)[C@@H](C)O)C(C)C [MGS4_V8] (Ac-FHAVPQSFYT[PEG12]E(X1)-NH2)
IC50 (HBEC cells): do not reach 50% cell viability | Molecules Internalized Per Cell (H1299 cells; 0.01 nM): 0 | Molecules Internalized Per Cell (H1299 cells; 1 nM): 88 | Molecules Internalized Per Cell (H1299 cells; 10 nM): 3648 | Molecules Internalized Per Cell (H1299 cells; 20 nM): 3316 | Molecules Internalized Per Cell (H1299 cells; 30 nM): 10700 | Molecules Internalized Per Cell (H1299 cells; 40 nM): 21020 | Molecules Internalized Per Cell (H1299 cells; 50 nM): 36807 | Saturation (molecules) (H1299 cells; H1299 Cells, peptides internalized per cell at saturation): 40,400 ± 5100 molecules | HillSlope (H1299 cells; Supplementary Table 3): 5.657 | LogIC50 (H1299 cells; Supplementary Table 3): -7.417 | Top (H1299 cells; Supplementary Table 3, molecules per cell): 40400
